# In US20220213341A1, “COLORED RESIN PARTICLE DISPERSION, INK, INK SET, INK JET TEXTILE PRINTING METHOD, MANUFACTURING METHOD OF OIL-SOLUBLE DYE, AND PRINTED TEXTILE PRODUCT” (FUJIFILM CORPORATION, priority 2019, published 2022):
# Test: MEK solubility of the dyes
# Assay type: physicochemical
# Settings: solubility in methyl ethyl ketone at 20° C.
# Protocol: In the present disclosure, the “oil-soluble dye” means a dye having a solubility of 5 mass % or greater in methyl ethyl ketone at 20° C. (hereinafter, also referred to as “MEK solubility”).
row,SMILES,MEK Solubility
1,CCCCCCCCCCCCSCCS(=O)(=O)c1ccc(/N=N/c2c(S(=O)(=O)O)cc3cc(S(=O)(=O)O)c(/N=N/c4ccc(S(=O)(=O)CCSCCCCCCCCCCCC)cc4)c(O)c3c2N)cc1 [d-3],10 mass %
2,CC(C)CNCCS(=O)(=O)c1ccc(/N=N/c2c(S(=O)(=O)O)cc3cc(S(=O)(=O)O)c(/N=N/c4ccc(S(=O)(=O)CCNCC(C)C)cc4)c(O)c3c2N)cc1 [d-5],7 mass %
3,CCCCCCN(CCCCCC)CCS(=O)(=O)c1ccc(/N=N/c2c(S(=O)(=O)O)cc3cc(S(=O)(=O)O)c(/N=N/c4ccc(S(=O)(=O)CCN(CCCCCC)CCCCCC)cc4)c(O)c3c2N)cc1 [d-8],10 mass %
4,CCCCC(CC)COCCCNCCS(=O)(=O)c1ccc(/N=N/c2c(S(=O)(=O)O)cc3cc(S(=O)(=O)O)c(/N=N/c4ccc(S(=O)(=O)CCNCCCOCC(CC)CCCC)cc4)c(O)c3c2N)cc1 (stereo not drawn) [d-4],10 mass %
5,CCCCC(CC)COCCS(=O)(=O)c1ccc(/N=N/c2c(S(=O)(=O)O)cc3cc(S(=O)(=O)O)c(/N=N/c4ccc(S(=O)(=O)CCOCC(CC)CCCC)cc4)c(O)c3c2N)cc1 (stereo not drawn) [d-2],10 mass %
6,CC(C)(C)CC(C)(C)NCCS(=O)(=O)c1ccc(/N=N/c2c(S(=O)(=O)O)cc3cc(S(=O)(=O)O)c(/N=N/c4ccc(S(=O)(=O)CCNC(C)(C)CC(C)(C)C)cc4)c(O)c3c2N)cc1 [d-6],10 mass %
7,CCCCCCCCN(CCCCCCCC)CCS(=O)(=O)c1ccc(/N=N/c2c(S(=O)(=O)O)cc3cc(S(=O)(=O)O)c(/N=N/c4ccc(S(=O)(=O)CCN(CCCCCCCC)CCCCCCCC)cc4)c(O)c3c2N)cc1 [d-9],10 mass %
8,CCCCN(CCCC)CCS(=O)(=O)c1ccc(/N=N/c2c(S(=O)(=O)O)cc3cc(S(=O)(=O)O)c(/N=N/c4ccc(S(=O)(=O)CCN(CCCC)CCCC)cc4)c(O)c3c2N)cc1 [d-7],7 mass %
